According to paper PMC6324581 (Peptide science (Hoboken, N.J.), 2018):
Converted amounts (≈) assume the structure as drawn. Square brackets hold non-standard residues; d marks the D form. Ends that are not written are not given here. Peptide text beside a SMILES is read from it. Dap = NC[C@H](N)C(=O)O

What was measured:
E. coli D31 = assay type: cell-based; conditions: Mueller Hinton broth, ~10^5 CFU/mL, 18 hours at 37°C, OD600, lowest concentration with no visible growth, average of 3 independent samples
[1] = system: P. aeruginosa (ATCC:10145); assay type: cell-based; conditions: ATCC:10145, 18 h
[2] = system: K. pneumonia (ATCC: 700603); assay type: cell-based, K. pneumoniae; conditions: 18 h
S. aureus (ATCC: 27660) = assay type: cell-based; conditions: ATCC: 27660, 18 h

Molecule	MIC (E. coli D31)	MIC [1]	MIC [2]	MIC (S. aureus (ATCC: 27660))
CC[C@H](C)[C@H](NC(=O)CNC(=O)[C@H](CN)NC(=O)[C@H](Cc1ccccc1)NC(=O)[C@H](CC(C)C)NC(=O)[C@H](CN)NC(=O)[C@H](CN)NC(=O)[C@H](C)NC(=O)[C@H](CN)NC(=O)[C@H](CN)NC(=O)[C@H](Cc1ccccc1)NC(=O)CNC(=O)[C@H](CN)NC(=O)[C@H](C)NC(=O)[C@H](Cc1c[nH]c2ccccc12)NC(=O)[C@@H](NC(=O)[C@H](CN)NC(=O)[C@@H](NC(=O)[C@H](CC(C)C)NC(=O)[C@H](CN)NC(=O)[C@@H](N)CN)[C@@H](C)CC)C(C)C)C(=O)NCC(=O)O [PBP-X] (H-[Dap][Dap]LI[Dap]VWA[Dap]GF[Dap][Dap]A[Dap][Dap]LF[Dap]GIG-OH)	1.88 µM (≈ 4.02 µg/mL)	3.75 µM (≈ 8.02 µg/mL)	–	–
KKAAKAWAKGAKKAKKLAKGAG [PBP-A]	>15 µM	>15 µM	>15 µM	–
KKLIKVFAKGFKKAKKLWKGIG [PBP-W18]	–	1.88 µM	1.88 µM	0.94 µM
KKLIKVFAKGWKKAKKLFKGIG [PBP-W11]	–	1.88 µM	1.88 µM	0.47 µM
KKLIKVWAKGFKKAKKLFKGIG [PBP]	0.94 µM	1.88 µM	1.88 µM	0.94 µM
